Here are results for four compounds from article PMC7760838, “Synthesis, Biological, and Computational Evaluation of Antagonistic, Chiral Hydrobenzoin Esters of Arecaidine Targeting mAChR M1” (Pharmaceuticals, 2020).

In series [1] the target is T1, mAChR M1 (Homo sapiens, UniProt P11229).
T1 construct: host or cells: CHO-K1
T1 sequence (P11229 1-460): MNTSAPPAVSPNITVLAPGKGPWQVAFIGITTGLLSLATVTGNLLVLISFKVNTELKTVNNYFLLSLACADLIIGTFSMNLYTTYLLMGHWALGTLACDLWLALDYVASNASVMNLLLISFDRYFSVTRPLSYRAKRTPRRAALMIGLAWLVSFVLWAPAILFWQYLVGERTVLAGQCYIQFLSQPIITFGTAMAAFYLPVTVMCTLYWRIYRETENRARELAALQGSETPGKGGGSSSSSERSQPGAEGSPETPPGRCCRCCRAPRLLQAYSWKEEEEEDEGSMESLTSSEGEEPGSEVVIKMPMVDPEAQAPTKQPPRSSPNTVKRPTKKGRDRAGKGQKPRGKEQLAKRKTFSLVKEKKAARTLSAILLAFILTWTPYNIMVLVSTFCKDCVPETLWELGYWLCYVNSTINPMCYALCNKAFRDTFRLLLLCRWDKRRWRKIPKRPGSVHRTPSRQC
The experiment in a line: competitive radioligand binding assay with [3H]NMS on CHO cell membranes, M1. Particulars: for Ki: CHO cell membranes, [3H]NMS, n ≥ 3, ± standard deviation, read-out: Inhibition constants (Ki) M1. The procedure: (§1) Cell membranes bearing human mAChRs M1-M5 were prepared as described previously. In short, stably transfected CHO cells were grown to confluence in T175 flasks, washed with ice-cold DPBS, and suspended in 2 mL 10 mM Tris/HCl, 1 mM EDTA-buffer (pH 7.4), and 200 µL protease inhibitor using a cell scraper. A cell homogenate was prepared by passing the cell suspension through a G29 needle and subsequently centrifuged (10 min, 1000× g, 4 °C). Ultracentrifugation of the supernatant (30 min, 100,000× g, 4 °C) yielded a membrane pellet, which was suspended in 125 µL 50 mM Tris/HCl-buffer (pH 7.4) per T175 flask and stored at −80 °C. Ten confluent T175 flask were processed for one batch.
(§2) The membrane-bound activity was recovered by filtration through GF/B filter paper pre-soaked in 0.1 % PEI and measured with a liquid scintillation counter. Maximum binding was measured by using 5 µL plain DMSO, and nonspecific binding was measured by using 5 µL 1 µM scopolamine in DMSO. […] Then, 3–12 µL membrane suspension were used per tube. IC50 values were calculated by a variable slope logistic regression using at least five distinct concentrations of test compound, pipetted in triplicates.

Another series addresses T2, human mAChR M2 (Homo sapiens, UniProt P08172).
T2 construct: host or cells: CHO-K1
T2 sequence (P08172 1-466): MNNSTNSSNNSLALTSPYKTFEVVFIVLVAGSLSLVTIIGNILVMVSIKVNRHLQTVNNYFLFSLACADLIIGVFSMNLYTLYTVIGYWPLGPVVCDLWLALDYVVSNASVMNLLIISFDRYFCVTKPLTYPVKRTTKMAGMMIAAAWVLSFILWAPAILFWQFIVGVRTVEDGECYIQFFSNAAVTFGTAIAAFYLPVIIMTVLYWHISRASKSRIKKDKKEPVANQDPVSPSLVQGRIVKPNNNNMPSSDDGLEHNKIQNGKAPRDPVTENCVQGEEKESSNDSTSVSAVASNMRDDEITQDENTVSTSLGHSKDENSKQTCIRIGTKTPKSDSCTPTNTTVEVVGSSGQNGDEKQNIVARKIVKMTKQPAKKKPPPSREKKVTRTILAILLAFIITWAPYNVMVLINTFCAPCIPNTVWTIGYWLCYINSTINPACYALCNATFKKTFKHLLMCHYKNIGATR
The experiment in a line: competitive radioligand binding assay with [3H]NMS on CHO cell membranes, M2. Particulars: n ≥ 3, ± standard deviation, read-out: Inhibition constants (Ki) M2. The procedure: as §1, §2

In a further series the target is T3, human mAChR M3 (Homo sapiens, UniProt P20309).
T3 construct: host or cells: CHO-K1
Nature of the series: competitive radioligand binding assay with [3H]NMS on CHO cell membranes, M3. To be noted: n ≥ 3, ± standard deviation, read-out: Inhibition constants (Ki) M3. The procedure: as §1, §2

A further series addresses T4, human mAChR M4 (Homo sapiens, UniProt P08173).
T4 construct: host or cells: CHO-K1
T4 sequence (P08173 1-479): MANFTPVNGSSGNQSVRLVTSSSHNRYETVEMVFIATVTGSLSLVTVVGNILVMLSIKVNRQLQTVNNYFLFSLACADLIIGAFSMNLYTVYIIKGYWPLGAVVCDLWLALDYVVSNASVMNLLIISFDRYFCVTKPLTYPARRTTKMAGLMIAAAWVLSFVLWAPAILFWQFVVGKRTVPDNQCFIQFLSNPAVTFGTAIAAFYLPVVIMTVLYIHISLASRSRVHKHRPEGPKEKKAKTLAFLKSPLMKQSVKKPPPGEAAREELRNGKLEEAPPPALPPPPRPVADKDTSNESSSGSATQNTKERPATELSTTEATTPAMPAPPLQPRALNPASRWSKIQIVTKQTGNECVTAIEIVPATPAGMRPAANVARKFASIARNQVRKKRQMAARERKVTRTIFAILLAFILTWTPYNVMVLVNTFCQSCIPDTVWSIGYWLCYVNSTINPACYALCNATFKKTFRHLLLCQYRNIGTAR
The experiment in a line: competitive radioligand binding assay with [3H]NMS on CHO cell membranes, M4. To be noted: n ≥ 3, ± standard deviation, read-out: Inhibition constants (Ki) M4. The procedure:
as §1, §2

A further series concerns the target T5, human mAChR M5 (Homo sapiens, UniProt P08912).
T5 construct: host or cells: CHO-K1
T5 sequence (P08912 1-532): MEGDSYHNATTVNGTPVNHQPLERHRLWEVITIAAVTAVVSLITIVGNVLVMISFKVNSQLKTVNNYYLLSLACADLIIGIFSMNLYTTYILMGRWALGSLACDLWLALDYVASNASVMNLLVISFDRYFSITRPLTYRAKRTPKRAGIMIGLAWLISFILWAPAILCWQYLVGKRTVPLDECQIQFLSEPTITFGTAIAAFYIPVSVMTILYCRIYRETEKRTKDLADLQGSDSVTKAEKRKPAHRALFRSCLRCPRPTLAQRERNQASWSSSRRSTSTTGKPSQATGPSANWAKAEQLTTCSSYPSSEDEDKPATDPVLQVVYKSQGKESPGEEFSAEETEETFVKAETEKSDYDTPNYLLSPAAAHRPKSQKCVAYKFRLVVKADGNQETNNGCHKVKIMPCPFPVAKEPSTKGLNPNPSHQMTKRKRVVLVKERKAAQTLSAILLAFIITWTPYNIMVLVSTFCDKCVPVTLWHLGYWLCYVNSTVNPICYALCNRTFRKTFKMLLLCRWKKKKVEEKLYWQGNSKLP
The experiment in a line: competitive radioligand binding assay with [3H]NMS on CHO cell membranes, M5. To be noted: n ≥ 3, ± standard deviation, read-out: Inhibition constants (Ki) M5. The procedure:
as §1, §2

The next series is described as follows: HPLC-logP determination. It counts as physicochemical. To be noted: HPLC on apHERA stationary phase (5 µm, 10 × 6 mm), pH 7.4; read-out: HPLC-logPow pH7.4.
Series [2] is described as follows: stability in DPBS at 37 °C (UV-HPLC). The class given is physicochemical. Particulars: for decomposition after 60 h: Sidak's multiple comparisons test; for decomposed after 2 h: linear interpolation between 0 h and 10 h. The procedure:
(§3) First, 1089 µL DPBS or Ham’s F12 nutrient mixture were mixed with 11 µL of 10 mM stock solution of 1, 2, or 3 in DMSO (final DMSO content: 1%) and agitated at 37 °C. Then, 80 µL of the solution was analyzed by UV-HPLC (216 nm) using an XSelect™ (HSS T3, 3.5 μm, 100 × 4.6 mm) stationary phase and 40% acetonitrile in 25 mM (NH4)H2PO4 buffer (pH 9.3) at a flow of 1 mL/min (k1,2 = 5.6, k3 = 5.9). The fraction of stable compounds was calculated as the area under the curve of the compound peak for each combination of compound and matrix related to the 0 h time point with 100%. Three non-consecutive HPLC analyses were performed for each time point, combination of compounds, and matrix.

The nature of series [3]: stability in Ham's F12 cell culture medium at 37 °C (UV-HPLC). The class given is physicochemical. Particulars: for decomposed after 2 h: linear interpolation between 0 h and 10 h. The procedure: as §3
Series [4] has as its target T1, mAChR M1. The experiment in a line: Fluo-4 direct calcium assay, agonist mode, CHO-M1 cells. Particulars: 0.001-100 µM. It counts as cell-based. How it is done:
(§4) For the Fluo-4 direct^TM calcium assay kit (invitrogen), 100 µL of a 5 × 10^5 cells/mL suspension of CHO-M1 cells were seeded in black clear bottom 96-well plates (Corning). After settling of the cells for 24 h, the kit was performed according to the supplier’s recommendation. In detail, the media was removed, and 50 µL of Hanks-balanced salt solution (HBSS; Sigma Aldrich) were added, followed by 50 µL of the Fluo-4 buffer solution (including probenecid). The 96-well plates were incubated for 60 min at 37 °C in the dark. For the agonist assay, 100 µL of a double-concentrated dilution series of carbachol (positive control), 1, 2, and 3 were added with the end concentration of 100, 10, 1, 0.1, 0.01 and 0.001 µM in duplicates. The relative fluorescence was measured with an excitation wavelength of 494 nm and an emission wavelength of 516 nm. For the antagonist assay, 50 µL of a 4-fold concentrated dilution series of scopolamine hydrochloride (positive control), 1, 2, and 3 were added in duplicates. Subsequently a 40 µM stock solution of carbachol was added to all wells, and the relative fluorescence was measured with an excitation wavelength of 494 nm and an emission wavelength of 516 nm. Stock solution of 1, 2, and 3 were in DMSO with a final concentration of at most 1% of DMSO. All experiments were performed at least in three repetitions.

The target in series [5] is T1, mAChR M1. Nature of the series: Fluo-4 direct calcium assay, antagonist mode (block of carbachol response), CHO-M1 cells. The class given is cell-based. Particulars: 20 µM carbachol. How it is done:
as §4

The conditions of series [6]: pH 7.4; cited from earlier work.

T3 sequence (P20309 whole entry): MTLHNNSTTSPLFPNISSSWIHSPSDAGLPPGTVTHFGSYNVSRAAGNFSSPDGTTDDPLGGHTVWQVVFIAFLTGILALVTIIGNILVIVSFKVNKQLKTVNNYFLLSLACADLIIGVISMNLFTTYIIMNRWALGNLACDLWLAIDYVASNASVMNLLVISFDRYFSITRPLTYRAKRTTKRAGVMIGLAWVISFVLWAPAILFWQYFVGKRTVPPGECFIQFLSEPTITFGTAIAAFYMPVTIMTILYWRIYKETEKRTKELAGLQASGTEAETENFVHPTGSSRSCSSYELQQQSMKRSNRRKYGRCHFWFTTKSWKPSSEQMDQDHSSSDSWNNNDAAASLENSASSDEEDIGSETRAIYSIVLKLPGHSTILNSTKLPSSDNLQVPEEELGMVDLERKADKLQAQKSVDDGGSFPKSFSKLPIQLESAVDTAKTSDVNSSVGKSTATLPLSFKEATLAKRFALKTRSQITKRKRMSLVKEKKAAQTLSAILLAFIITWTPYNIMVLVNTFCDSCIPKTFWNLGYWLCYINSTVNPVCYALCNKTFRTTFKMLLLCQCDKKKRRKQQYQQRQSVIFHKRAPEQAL

Usually Ki stands for the equilibrium dissociation constant of an inhibitor or competing ligand from its target. With `CN1CCC=C(C(=O)O[C@@H](c2ccccc2)[C@H](O)c2ccccc2)C1` (racemic) [compound 3, Rac. (1S,2R)-2-hydroxy-1,2-diphenylethyl 1-methyl-1,2,5,6-tetrahydropyridine-3-carboxylate], the inhibition constant Ki amounted to 380 ± 90 nM on mAChR M1 [1]; 3700 ± 1000 nM on human mAChR M2; 3200 ± 500 nM at human mAChR M3; 1600 ± 200 nM at human mAChR M4; 970 ± 90 nM on human mAChR M5. Further, the chromatographic logD in “HPLC-logP determination” turned out to be 2.39 ± 0.1. Further, the “decomposition after 60 h” value in series [2] is given as “decomposed to the same extent”. For the same compound, the “decomposed after 2 h” value in [2] amounted to 0.8%; in series [3], 2.5%. Further, the “calcium release (agonistic activity)” value on mAChR M1 [4] is listed as “no increase in calcium release”. For the same compound, at mAChR M1 [5], the “functionality (block of calcium response to carbachol)” value is given as “antagonistic binding”.

Take `CN1CCC=C(C(=O)OC(c2ccccc2)c2ccccc2)C1` [arecaidine diphenylmethyl ester]: in series [6], the “HPLC-logPow pH7.4” value is on record as 3.32 ± 0.04.

For the compound `CN1CCC=C(C(=O)O[C@H](c2ccccc2)[C@H](O)c2ccccc2)C1` [compound 1, (1R,2R)-(+)-2-hydroxy-1,2-diphenylethyl 1-methyl-1,2,5,6-tetrahydropyridine-3-carboxylate], the inhibition constant Ki on mAChR M1 [1] was 99 ± 19 nM; at human mAChR M2, 1900 ± 300 nM; on human mAChR M3 it was 1300 ± 600 nM; on human mAChR M4 it was 700 ± 300 nM; at human mAChR M5 it was 600 ± 75 nM. Also, the “selectivity between M1 and M2” value on mAChR M1 [1] (Ki M2 divided by Ki M1) is reported as 19 fold. The “M1 over M4 subtype selectivity” value at mAChR M1 [1] (Ki M4 divided by Ki M1, Ki values of this work) was found to be 7 fold. In “HPLC-logP determination”, the chromatographic logD came out at 2.24 ± 0.12. For the same compound, the “decomposition after 60 h” value is recorded as “decomposed to the same extent” in series [2] and “significantly stronger compared to 2” in series [3]. For the same compound, the “decomposed after 2 h” value was found to be 0.8% in [2] and 2.5% in series [3]. In addition, the “calcium release (agonistic activity)” value on mAChR M1 [4] is “no increase in calcium release”. The “functionality (block of calcium response to carbachol)” value at mAChR M1 [5] is given as “antagonistic binding”.

Consider `CN1CCC=C(C(=O)O[C@@H](c2ccccc2)[C@@H](O)c2ccccc2)C1` [compound 2, (1S,2S)-(−)-2-hydroxy-1,2-diphenylethyl 1-methyl-1,2,5,6-tetrahydropyridine-3-carboxylate], for which the Ki on mAChR M1 [1] came to 800 ± 200 nM; on human mAChR M2, 8000 ± 2000 nM; on human mAChR M3 it was 1600 ± 300 nM; on human mAChR M4, 2700 ± 600 nM; on human mAChR M5, 1300 ± 300 nM. The chromatographic logD in “HPLC-logP determination” came to 2.24 ± 0.12. For the same compound, the “decomposition after 60 h” value in [2] is “decomposed to the same extent”. Further, the “decomposed after 2 h” value in series [2] was 0.8%; in series [3], 2.5%. Moreover, the “calcium release (agonistic activity)” value on mAChR M1 [4] is “no increase in calcium release”. At mAChR M1 [5], the “functionality (block of calcium response to carbachol)” value is reported as “antagonistic binding”.
